These results are taken from ChEMBL document CHEMBL1201862, “PubChem BioAssay data set” (2004).

The IC50 is the concentration that inhibits the measured activity by half. What is called EC50 is the concentration at which the effect is half-maximal. The AC50 is the concentration at which the activity in the assay is half-maximal.

Molecules are shown by their SMILES. The source made the active and inactive calls. Where only a bound is given, the exact number is not on record here.

Assay [1] has as its target T1, Tyrosine-protein phosphatase non-receptor type 7 (Homo sapiens, UniProt P35236).
T1 sequence (P35236 whole entry): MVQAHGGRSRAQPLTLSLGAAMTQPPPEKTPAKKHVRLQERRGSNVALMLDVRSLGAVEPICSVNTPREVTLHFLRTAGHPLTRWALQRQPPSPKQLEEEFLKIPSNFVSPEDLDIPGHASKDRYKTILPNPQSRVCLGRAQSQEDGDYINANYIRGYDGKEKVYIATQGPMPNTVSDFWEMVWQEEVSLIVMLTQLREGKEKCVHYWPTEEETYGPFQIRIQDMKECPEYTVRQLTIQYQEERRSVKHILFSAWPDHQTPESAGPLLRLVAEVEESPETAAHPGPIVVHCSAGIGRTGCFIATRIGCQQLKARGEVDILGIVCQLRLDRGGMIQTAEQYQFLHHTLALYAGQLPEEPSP
The assay can be described thus: HePTP tyrosine phosphatase activity blockers – biochemical, absorbance, leukemia target, primary screen (AID 521). The assay is classed as functional.

For assay [2], the target named is E3 ubiquitin-protein ligase Mdm2 (Homo sapiens, UniProt Q00987). Description: MDM2-luc reporter signal enhancers, multi-concentration potency testing, MDM2 ubiquitin-protein ligase inhibitor program, whole-cell format, luminescence detection, 384-well microplate (AID 1394).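 Also: MDM2 E3 inhibitors raise luminescence so EC50 is for signal enhancement.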 It is filed as functional.
In assay [3] the target is T2, Carboxy-terminal domain RNA polymerase II polypeptide A small phosphatase 1 (Homo sapiens, UniProt Q9GZU7).
T2 sequence (Q9GZU7 whole entry): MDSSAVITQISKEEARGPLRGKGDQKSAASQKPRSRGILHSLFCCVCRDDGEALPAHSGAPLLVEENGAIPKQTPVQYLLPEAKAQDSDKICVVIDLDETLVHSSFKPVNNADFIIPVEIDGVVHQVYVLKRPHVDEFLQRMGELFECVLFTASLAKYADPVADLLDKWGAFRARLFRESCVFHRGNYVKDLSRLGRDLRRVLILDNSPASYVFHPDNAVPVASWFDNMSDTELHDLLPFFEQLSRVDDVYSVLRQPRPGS
The assay can be described thus: CTDSP1 inhibitors, concentration-response, biochemical, absorbance readout, ultra-high-throughput screen actives (AID 540297). The assay is classed as functional.

Assay [4] has as its target T3, SUMO-activating enzyme (Homo sapiens, UniProt Q9UBT2). The assay can be described thus: blockers of UBC9-mediated SUMO conjugation – biochemical, AlphaScreen, SUMOylation inhibitor project, confirmation (AID 2018). It is filed as functional. (Alpha assays give light when donor and acceptor beads are brought close together.)
Assay [5] addresses T3, SUMO-activating enzyme. Description: blockers of SAE1/SAE2–UBC9 SUMO transfer – biochemical, HTRF, uHTS, primary screen (AID 2006). The assay is classed as protein-complex assay. In general terms: Time-resolved FRET reads energy transfer from a long-lived donor to a nearby acceptor.
Assay [6] deals with Bifunctional protein GlmU (Mycobacterium tuberculosis, UniProt P9WMN3). Description: Inhibitors of Mycobacterial Glucosamine-1-phosphate acetyl transferase (GlmU). Secondary screen. Further details: species or system Mycobacterium tuberculosis H37Rv.
The nature of assay [7]: Dd2 parasite growth inhibition in erythrocytes – SYBR Green, dry powder samples, set 9, dose response (AID 1159568). It is filed as functional, cell-based.
Assay [8] concerns the target T4, Mannose-6-phosphate isomerase (Homo sapiens, UniProt P34949).
T4 sequence (P34949 whole entry): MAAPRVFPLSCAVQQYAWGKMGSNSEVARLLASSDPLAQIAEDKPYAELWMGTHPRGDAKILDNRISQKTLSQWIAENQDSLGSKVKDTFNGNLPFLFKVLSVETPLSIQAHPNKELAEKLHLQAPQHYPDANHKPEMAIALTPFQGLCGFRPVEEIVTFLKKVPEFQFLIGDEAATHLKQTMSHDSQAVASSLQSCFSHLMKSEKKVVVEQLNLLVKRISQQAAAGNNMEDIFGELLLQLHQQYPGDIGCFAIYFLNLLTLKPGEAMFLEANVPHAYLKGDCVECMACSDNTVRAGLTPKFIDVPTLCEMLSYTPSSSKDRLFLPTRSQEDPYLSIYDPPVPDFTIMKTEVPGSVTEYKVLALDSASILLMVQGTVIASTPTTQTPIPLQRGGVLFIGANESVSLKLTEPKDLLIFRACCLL
The assay can be described thus: MPI inhibition at elevated mannose 6-phosphate – biochemical, fluorescence intensity, high mannose 6-phosphate, primary screen (AID 1220).

For assay [9], the target named is Nonstructural protein 1 (Influenza A virus, UniProt Q194T2). The assay is classed as functional, Influenza A virus (A/California/07/2009(H1N1)).
Assay [10] in a line: viability inhibitors of stage V gametocytes – luminescence, dose response (AID 1117278).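 Also: gametocytes exposed to compound for 24 hours.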 It is filed as functional, cell-based.
Assay [11] can be described thus: viability loss in human Jurkat cells – cell-based, luminescence, cytotoxicity control for P. falciparum gametocyte viability project, dose response (AID 1117277).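 Also: potency reflects loss of cellular ATP meaning fewer viable cells.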 The assay is classed as functional.
Assay [12] concerns the target T5, Heat shock factor protein 1 (Mus musculus, UniProt P38532).
T5 sequence (P38532 whole entry): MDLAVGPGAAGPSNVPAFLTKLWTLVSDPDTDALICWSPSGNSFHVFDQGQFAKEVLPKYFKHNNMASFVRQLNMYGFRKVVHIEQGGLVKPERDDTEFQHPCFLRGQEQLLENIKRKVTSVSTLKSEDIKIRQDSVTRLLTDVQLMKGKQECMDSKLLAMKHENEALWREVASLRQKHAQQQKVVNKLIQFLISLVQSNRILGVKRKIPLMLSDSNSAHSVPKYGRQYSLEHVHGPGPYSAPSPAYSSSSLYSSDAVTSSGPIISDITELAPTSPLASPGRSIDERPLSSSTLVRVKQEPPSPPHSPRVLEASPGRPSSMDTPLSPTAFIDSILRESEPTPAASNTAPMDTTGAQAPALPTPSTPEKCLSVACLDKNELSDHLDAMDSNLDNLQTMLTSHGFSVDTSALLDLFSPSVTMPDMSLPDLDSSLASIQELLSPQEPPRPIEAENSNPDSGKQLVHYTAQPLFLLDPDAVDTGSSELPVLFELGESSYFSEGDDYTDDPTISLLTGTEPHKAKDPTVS
Description: decrease of HSF1-responsive luciferase luminescence – cell-based, NIH3T3, dose retest, confirmation (AID 2382).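 Also: NIH3T3 fibroblasts with HSF1-driven luciferase reporter stressed by proteasome inhibitor MG132; luminescence from HSF1-driven luciferase expression after 8 hours of MG132 stress.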 It is filed as functional.

For assay [13], the target named is Heat shock protein HSP 90-alpha (Homo sapiens, UniProt P07900). The assay can be described thus: Luminescence-based dose response biochemical high throughput screening assay for inhibitors of the Heat Shock Protein 90 (HSP90). [Related pubchem assays: 1831 (Summary AID.), 1846 (Confirmation screen.), 1789 (Primary screen.)].
Assay [14] deals with Jurkat. The assay can be described thus: blockers of NF-kB activation in T cells – Jurkat, luciferase reporter, luminescence, B- and T-cell, dose response (AID 489004).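 Also: NF-kB luciferase reporter Jurkat cells stimulated with PMA plus ionomycin.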 The assay is classed as functional, cell-based. To be noted: Homo sapiens.
Assay [15] is described as follows: HEK-293T viability loss, compound-treated – cell-based, uHTS hits, cytotoxicity control for B/T-cell NF-kB inhibitor project, dose response (AID 489019).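 Also: IC50 reflects cytotoxicity as loss of cell viability.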 It is filed as functional.
The nature of assay [16]: blockers of HIV-1 envelope-mediated cell-cell fusion – cherry-pick, dose response (AID 652057). The assay is classed as functional, cell-based.
A short description of assay [17]: blockers of HIV-1 ZM109 envelope-driven cell-cell fusion – HeLa effector, CEM target cells, luciferase, cherry-pick, dose response (AID 652058).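 Also: luciferase signal from HIV-1 Env mediated cell-cell fusion of effector and target cells.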 The assay is classed as functional, cell-based.
Assay [18] deals with Paired box protein Pax-8 (Homo sapiens, UniProt Q06710). Description: PAX8 transcriptional activity inhibition in RMG-I – RMG-I cells, luciferase, cherry-pick, dose response (AID 687027).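 Also: luciferase reporter driven by Pax8 target thyroperoxidase promoter measured by SteadyGlo luminescence.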 The assay is classed as functional, cell-based.
Assay [19] is described as follows: off-target signal loss in HeLa-CEM21 co-culture – HeLa F-luc CTL cells, cherry-picked, counter-screen for HIV-1 Env fusion inhibitor project, dose response (AID 652040).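 Also: potency for signal decrease marking cytotoxic or nonspecific inhibition.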 It is filed as functional, cell-based. (In general: Counterscreens check selectivity or assay interference.)
A short description of assay [20]: HIV-1 AD8 envelope cell-cell fusion blockers – cherry-pick, dose response (AID 652062).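 Also: luciferase signal from cell-cell fusion driven by HIV-1 clade B AD8 Env; potency is for inhibitors of fusion seen as a drop in luminescence.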 The assay is classed as functional, cell-based.
A short description of assay [21]: A549 cell cytotoxicity, dose response, cytotoxicity control, plate reader, cherry-pick, antagonist series (AID 743412). The assay is classed as functional, cell-based.
Assay [22] is described as follows: blockers of bursicon-stimulated LGR2 cAMP reporter – cell-based, HEK293, CRE-luciferase reporter, cherry pick, set 2, dose response (AID 743343).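 Also: transfected cells were stimulated with diluted bursicon conditioned medium after compound addition.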 It is filed as functional.
A short description of assay [23]: blockade of melanocortin 4 receptor signaling – cell-based, plate reader, cherry pick, counter-screen for LGR2 antagonist project, dose response (AID 743444).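 Also: transfected HEK 293 cells stimulated with alpha-MSH peptide; potency of inhibitors of the alpha-MSH evoked signal.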 It is filed as functional.
Assay [24] is described as follows: viability loss in HEK293 cells – cell-based, plate reader, cherry-picked samples, cytotoxicity control, dose response (AID 743446). It is filed as functional.
Assay [25] deals with Protein Tat (Human immunodeficiency virus type 1 group M subtype B (isolate HXB2)(HIV-1), UniProt P04608). The assay is classed as functional.
The nature of assay [26]: HIV-1 Vif–A3G interaction blockers – biochemical, TR-FRET, GST-Vif 1-94, biotin-A3G peptide, dose response retest, primary screen (AID 1117319).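 Also: TR-FRET signal of purified GST-Vif binding a biotinylated A3G peptide; inhibitors lower the FRET signal by blocking Vif and A3G binding.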 It is filed as functional.
Assay [27] concerns the target Mitogen-activated protein kinase 10 (Homo sapiens, UniProt P53779). The assay can be described thus: Dose response biochemical screening assay for inhibitors of c-Jun N-Terminal Kinase 3 (JNK3). [Related pubchem assays: 746 ].
Assay [28] concerns the target T6, Coagulation factor XII (Homo sapiens, UniProt P00748).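 Also: activated factor XIIa alpha cleaving a fluorogenic AMC peptide substrate; inhibitor potency from loss of enzyme activity.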
T6 sequence (P00748 whole entry): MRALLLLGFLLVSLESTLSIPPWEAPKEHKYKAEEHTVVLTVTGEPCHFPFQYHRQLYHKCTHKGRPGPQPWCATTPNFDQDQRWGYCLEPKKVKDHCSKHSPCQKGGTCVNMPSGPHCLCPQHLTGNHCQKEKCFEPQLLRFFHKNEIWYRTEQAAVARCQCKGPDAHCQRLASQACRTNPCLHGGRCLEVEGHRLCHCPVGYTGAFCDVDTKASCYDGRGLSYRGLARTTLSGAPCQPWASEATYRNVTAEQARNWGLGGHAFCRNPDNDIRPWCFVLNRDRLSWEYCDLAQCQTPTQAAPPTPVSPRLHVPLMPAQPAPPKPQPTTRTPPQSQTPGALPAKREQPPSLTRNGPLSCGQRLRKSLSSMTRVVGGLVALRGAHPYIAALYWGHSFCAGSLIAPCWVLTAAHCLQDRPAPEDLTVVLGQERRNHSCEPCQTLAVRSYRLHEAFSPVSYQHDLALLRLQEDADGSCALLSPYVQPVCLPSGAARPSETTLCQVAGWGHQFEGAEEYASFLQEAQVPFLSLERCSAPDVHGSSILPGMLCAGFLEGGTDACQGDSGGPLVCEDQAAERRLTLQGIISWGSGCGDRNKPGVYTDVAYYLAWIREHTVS
It is filed as functional.

T3 sequence (Q9UBE0 whole entry): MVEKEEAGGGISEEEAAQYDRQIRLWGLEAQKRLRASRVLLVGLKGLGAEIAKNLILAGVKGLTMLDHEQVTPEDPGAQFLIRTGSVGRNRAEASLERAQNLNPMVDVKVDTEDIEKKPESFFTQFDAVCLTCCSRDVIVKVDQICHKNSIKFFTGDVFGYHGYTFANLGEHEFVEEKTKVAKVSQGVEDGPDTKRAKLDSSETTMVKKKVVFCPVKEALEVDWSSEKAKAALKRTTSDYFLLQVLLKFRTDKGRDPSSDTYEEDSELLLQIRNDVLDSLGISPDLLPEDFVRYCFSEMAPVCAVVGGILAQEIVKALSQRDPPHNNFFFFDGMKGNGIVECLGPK
T3 sequence (Q9UBT2 whole entry): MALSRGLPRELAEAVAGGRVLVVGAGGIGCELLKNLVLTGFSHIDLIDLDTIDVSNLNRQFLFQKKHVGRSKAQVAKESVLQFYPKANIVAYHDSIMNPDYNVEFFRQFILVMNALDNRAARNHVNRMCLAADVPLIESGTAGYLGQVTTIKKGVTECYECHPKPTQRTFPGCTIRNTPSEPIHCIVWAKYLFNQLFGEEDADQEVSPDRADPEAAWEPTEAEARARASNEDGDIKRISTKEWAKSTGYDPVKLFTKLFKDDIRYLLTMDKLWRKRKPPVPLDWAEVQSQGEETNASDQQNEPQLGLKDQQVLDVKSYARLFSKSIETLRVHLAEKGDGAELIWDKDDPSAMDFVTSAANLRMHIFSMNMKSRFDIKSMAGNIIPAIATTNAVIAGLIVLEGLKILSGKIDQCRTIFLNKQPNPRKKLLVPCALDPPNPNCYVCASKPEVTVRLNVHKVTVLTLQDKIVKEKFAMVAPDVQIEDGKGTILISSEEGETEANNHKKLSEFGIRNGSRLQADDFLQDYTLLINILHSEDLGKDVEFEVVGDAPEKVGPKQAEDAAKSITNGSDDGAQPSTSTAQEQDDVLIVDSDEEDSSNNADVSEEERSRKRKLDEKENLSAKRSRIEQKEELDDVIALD
Bifunctional protein GlmU, sequence (P9WMN3 whole entry): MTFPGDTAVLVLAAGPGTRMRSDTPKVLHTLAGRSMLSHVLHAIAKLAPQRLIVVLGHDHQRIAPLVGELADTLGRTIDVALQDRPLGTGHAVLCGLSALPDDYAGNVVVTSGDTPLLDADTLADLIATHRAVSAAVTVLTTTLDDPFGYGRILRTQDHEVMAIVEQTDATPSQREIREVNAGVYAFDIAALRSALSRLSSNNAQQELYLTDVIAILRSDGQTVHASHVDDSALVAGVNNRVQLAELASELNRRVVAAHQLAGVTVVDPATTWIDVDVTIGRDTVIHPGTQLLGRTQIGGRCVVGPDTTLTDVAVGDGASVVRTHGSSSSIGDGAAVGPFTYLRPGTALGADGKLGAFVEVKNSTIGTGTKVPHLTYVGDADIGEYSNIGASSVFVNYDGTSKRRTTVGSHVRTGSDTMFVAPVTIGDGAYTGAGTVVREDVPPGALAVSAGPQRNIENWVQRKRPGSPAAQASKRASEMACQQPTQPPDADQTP
E3 ubiquitin-protein ligase Mdm2, sequence (Q00987 whole entry, the tested form may be a part): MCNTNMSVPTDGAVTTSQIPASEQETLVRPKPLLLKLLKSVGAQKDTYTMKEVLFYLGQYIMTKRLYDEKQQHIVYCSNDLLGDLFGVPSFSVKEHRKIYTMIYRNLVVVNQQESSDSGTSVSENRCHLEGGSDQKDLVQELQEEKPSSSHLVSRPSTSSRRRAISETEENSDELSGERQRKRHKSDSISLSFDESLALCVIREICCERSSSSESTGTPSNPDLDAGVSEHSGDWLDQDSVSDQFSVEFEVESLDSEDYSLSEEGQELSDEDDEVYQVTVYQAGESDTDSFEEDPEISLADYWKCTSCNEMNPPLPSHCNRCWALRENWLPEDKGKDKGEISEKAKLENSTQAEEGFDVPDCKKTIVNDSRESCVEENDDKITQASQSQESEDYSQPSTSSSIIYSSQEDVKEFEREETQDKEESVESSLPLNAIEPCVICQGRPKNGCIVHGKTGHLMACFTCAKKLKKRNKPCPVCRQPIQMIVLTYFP
Mitogen-activated protein kinase 10, sequence (P53779 whole entry): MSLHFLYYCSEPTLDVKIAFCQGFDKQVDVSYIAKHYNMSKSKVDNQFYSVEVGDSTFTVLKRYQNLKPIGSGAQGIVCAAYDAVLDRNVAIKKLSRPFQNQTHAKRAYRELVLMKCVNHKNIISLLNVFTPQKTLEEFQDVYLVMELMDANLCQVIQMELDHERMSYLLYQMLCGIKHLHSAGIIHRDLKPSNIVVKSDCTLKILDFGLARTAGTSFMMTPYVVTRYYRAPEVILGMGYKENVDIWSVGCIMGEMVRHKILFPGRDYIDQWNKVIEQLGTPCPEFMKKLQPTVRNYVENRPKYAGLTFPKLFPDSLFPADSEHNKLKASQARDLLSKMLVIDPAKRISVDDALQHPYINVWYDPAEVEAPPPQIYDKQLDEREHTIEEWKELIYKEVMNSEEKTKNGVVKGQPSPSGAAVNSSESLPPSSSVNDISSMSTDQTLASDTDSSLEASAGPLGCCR
Paired box protein Pax-8, sequence (Q06710 whole entry, the tested form may be a part): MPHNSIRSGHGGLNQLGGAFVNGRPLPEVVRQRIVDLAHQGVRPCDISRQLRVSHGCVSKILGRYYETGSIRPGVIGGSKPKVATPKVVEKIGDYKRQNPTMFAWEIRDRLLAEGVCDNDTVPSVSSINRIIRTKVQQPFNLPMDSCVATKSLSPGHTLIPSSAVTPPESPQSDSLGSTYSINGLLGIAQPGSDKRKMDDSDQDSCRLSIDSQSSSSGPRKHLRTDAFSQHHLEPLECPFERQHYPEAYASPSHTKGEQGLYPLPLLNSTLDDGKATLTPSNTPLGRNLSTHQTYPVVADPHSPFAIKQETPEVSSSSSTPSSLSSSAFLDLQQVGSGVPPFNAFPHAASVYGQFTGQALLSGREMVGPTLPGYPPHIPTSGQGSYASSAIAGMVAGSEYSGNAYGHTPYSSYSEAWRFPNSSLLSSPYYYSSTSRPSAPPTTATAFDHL
Nonstructural protein 1, sequence (Q194T2 whole entry): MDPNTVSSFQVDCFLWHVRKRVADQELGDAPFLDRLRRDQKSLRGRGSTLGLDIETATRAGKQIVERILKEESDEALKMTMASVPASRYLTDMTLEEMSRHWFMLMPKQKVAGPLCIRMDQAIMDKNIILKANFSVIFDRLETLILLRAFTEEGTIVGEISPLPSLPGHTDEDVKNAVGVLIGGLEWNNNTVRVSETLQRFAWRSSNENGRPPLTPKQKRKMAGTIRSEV
Protein Tat, sequence (P04608 whole entry): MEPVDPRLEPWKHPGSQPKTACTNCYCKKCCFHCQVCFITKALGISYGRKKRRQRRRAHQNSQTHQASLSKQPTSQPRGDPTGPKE

Regarding `CC(=O)Oc1oc(-c2ccccc2)nc1/C=N/c1ccccn1`, the IC50 in assay [1] is > 100 µM (not active).

Turning to `O=C1CCN(Cc2ccccc2)S(=O)(=O)c2ccccc21`, the concentration for a half-maximal effect (EC50) in [2] was 3.06 µM (not active). The IC50 in assay [3] is 39.3 µM (active).

Turning to `N#C/C(=C/c1ccc(-c2cc(C(=O)O)cc(C(=O)O)c2)o1)c1nc2ccccc2s1`, the IC50 is 2.81 µM (active) in [4], 15.9 µM (active) in assay [5] and 19.1 µM (active) in assay [6].

As to `C[C@H](CO)N1C[C@H](C)[C@@H](CN(C)C(=O)Nc2ccc(C(F)(F)F)cc2)Oc2c(NC(=O)c3ccc(-c4nccs4)cc3)cccc2C1=O`, in assay [7], the AC50 was 6.41 µM (active).

For the compound `Nc1ccccc1NC1CCCCC1`, the IC50 was > 50 µM (not active) in assay [8] and 64.8 µM (active) in [9].

Take `COCCNC(=O)c1ccc2c(c1)CCN2S(C)(=O)=O`: the figures for the IC50 in [10] and in assay [11] were > 109 µM (inactive) and > 83.3 µM (inactive), respectively.

On to `O=C(CN1C(=O)c2ccccc2S1(=O)=O)c1ccc2c(c1)OCCO2`, for which the EC50 in assay [12] is 0.418 µM (active). Besides, the results for the IC50 in assay [13], in assay [14] and in assay [15] were 1.39 µM (active), 0.17 µM (active) and > 80 µM (inactive), respectively. Moreover, the AC50 in assay [16] is 0.339 µM (active); in assay [17], 1.08 µM (active); in assay [18] it was 1.64 µM (active); in [19], 0.556 µM (active); in assay [20], < 0.26 µM (active); in assay [21] it was 22.9 µM (active). For the same compound, the AC50 in assay [22] is 0.126 µM (active); in assay [23], 0.206 µM (active); in assay [24], > 52 µM (inactive).

Turning to `CCOC(=O)c1cc(NC(=O)N2CCCc3ccccc32)c(C)nc1C`, the IC50 in assay [25] and in assay [26] was > 100 µM (active) in each case.

Consider `NC(=O)c1c(NC(=O)C2CCCO2)sc2c1CCC2` (stereo not drawn), for which the results for the IC50 in assay [27] and in assay [28] were 42.5 µM (not active) and > 50 µM (inactive), respectively.
